Measurements from US10543212B2, “Substituted amines for treating cardiac diseases” (Cardurion Pharmaceuticals, LLC, priority 2017, dated 2020).

Each compound was assayed against T1, Full-length, GST-tagged, human CaMKIIδ (Homo sapiens, UniProt Q13557) (assay: CaMKIIδ binding assay (TR-FRET with BODIPY-labeled probe ligand)). Details: Table 2; activity class for CaMKIIδ.
T1 construct: Full-Length, Glutathione-S-Transferase(GST)-Tagged, Human CaMKIIδ was purchased from Carna Biosciences; purchased Carna Biosciences 02-111
T1 sequence (Q13557 1-478 isoform Q13557-12): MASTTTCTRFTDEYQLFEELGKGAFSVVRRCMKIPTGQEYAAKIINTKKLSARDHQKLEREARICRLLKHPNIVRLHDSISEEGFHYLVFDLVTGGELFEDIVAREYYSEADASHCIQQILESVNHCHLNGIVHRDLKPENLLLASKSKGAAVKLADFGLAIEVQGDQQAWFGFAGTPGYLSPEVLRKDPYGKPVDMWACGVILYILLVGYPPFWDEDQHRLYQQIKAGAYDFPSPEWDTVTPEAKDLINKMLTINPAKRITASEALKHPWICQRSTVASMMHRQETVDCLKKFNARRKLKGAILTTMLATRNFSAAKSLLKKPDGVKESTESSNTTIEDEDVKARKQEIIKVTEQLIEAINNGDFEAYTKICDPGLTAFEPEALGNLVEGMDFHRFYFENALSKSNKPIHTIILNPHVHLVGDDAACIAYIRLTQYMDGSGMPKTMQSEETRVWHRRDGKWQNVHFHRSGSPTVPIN
Outline: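 Compounds were tested as 4-fold, eight-point series for 1 hr at room temperature, and IC50 was obtained by logistic fitting against a 3 μM parent-compound control. Signal came from displacement of a 300 nM BODIPY ligand from 0.5 nM GST-CaMKIIδ, detected via Tb-anti-GST in calmodulin/Ca2+ (pH 7.6).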

Compound	IC50
COc1cc(N2CCOC(CN(C)C)C2)ccc1Nc1ncc(-c2ccc(Cl)c(O[C@@H](C)Cn3cnnn3)c2)cn1 (stereo partly drawn) [Example 688, 5-(3-(((S)-1-(1H-tetrazol-1-yl)propan-2-yl)oxy)-4-chlorophenyl)-N-(4-(2-((dimethylamino)methyl)morpholino)-2-methoxyphenyl)pyrimidin-2-amine]	< 10 nM
COc1cc(N2CCCN(C3CCOCC3)CC2)ccc1Nc1ncc(-c2ccc(Cl)c(O[C@@H](C)Cn3cnnn3)c2)cn1 [Example 693, (S)-5-(3-((1-(1H-tetrazol-1-yl)propan-2-yl)oxy)-4-chlorophenyl)-N-(2-methoxy-4-(4-(tetrahydro-2H-pyran-4-yl)-1,4-diazepan-1-yl)phenyl)pyrimidin-2-amine]	< 10 nM
C[C@@H](Cn1cnnn1)Oc1cc(-c2cnc(Nc3cn(C4CN(C(=O)OC(C)(C)C)C4)nc3C(F)(F)F)nc2)ccc1Cl [Example 696, tert-butyl (S)-3-(4-((5-(3-((1-(1H-tetrazol-1-yl)propan-2-yl)oxy)-4-chlorophenyl)pyrimidin-2-yl)amino)-3-(trifluoromethyl)-1H-pyrazol-1-yl)azetidine-1-carboxylate]	10 to 100 nM
C[C@@H](Cn1cnnn1)Oc1cc(-c2cnc(Nc3cn(C4CNC4)nc3C(F)(F)F)nc2)ccc1Cl [Example 697, (S)-5-(3-((1-(1H-tetrazol-1-yl)propan-2-yl)oxy)-4-chlorophenyl)-N-(1-(azetidin-3-yl)-3-(trifluoromethyl)-1H-pyrazol-4-yl)pyrimidin-2-amine]	< 10 nM
C[C@@H](Cn1cnnn1)Oc1cc(-c2cnc(Nc3cn(C4CN(C5CCOCC5)C4)nc3C(F)(F)F)nc2)ccc1Cl [Example 698, (S)-5-(3-((1-(1H-tetrazol-1-yl)propan-2-yl)oxy)-4-chlorophenyl)-N-(1-(1-(tetrahydro-2H-pyran-4-yl)azetidin-3-yl)-3-(trifluoromethyl)-1H-pyrazol-4-yl)pyrimidin-2-amine]	< 10 nM
C[C@@H](Cn1cnnn1)Oc1cc(-c2cnc(Nc3cn(C4CN(C5COC5)C4)nc3C(F)(F)F)nc2)ccc1Cl [Example 699, (S)-5-(3-((1-(1H-tetrazol-1-yl)propan-2-yl)oxy)-4-chlorophenyl)-N-(1-(1-(oxetan-3-yl)azetidin-3-yl)-3-(trifluoromethyl)-1H-pyrazol-4-yl)pyrimidin-2-amine]	10 to 100 nM
CCn1cc(Nc2ncc(-c3ccc(Cl)c(O[C@@H](C)Cn4cnnn4)c3)cn2)c(OCC(F)(F)F)n1 [Example 700, (S)-5-(3-((1-(1H-tetrazol-1-yl)propan-2-yl)oxy)-4-chlorophenyl)-N-(1-ethyl-3-(2,2,2-trifluoroethoxy)-1H-pyrazol-4-yl)pyrimidin-2-amine]	< 10 nM
C[C@@H](Cn1cnnn1)Oc1cc(-c2cnc(Nc3cn([C@@H]4C[C@H]5CC[C@@H](C4)N5C(=O)OC(C)(C)C)nc3C(F)(F)F)nc2)ccc1Cl [Example 701, tert-butyl (1R,3s,5S)-3-(4-((5-(3-(((S)-1-(1H-tetrazol-1-yl)propan-2-yl)oxy)-4-chlorophenyl)pyrimidin-2-yl)amino)-3-(trifluoromethyl)-1H-pyrazol-1-yl)-8-azabicyclo[3.2.1]octane-8-carboxylate]	≥ 100 nM
C[C@@H](Cn1cnnn1)Oc1cc(-c2cnc(Nc3cn([C@@H]4C[C@H]5CC[C@@H](C4)N5)nc3C(F)(F)F)nc2)ccc1Cl [Example 702, 5-(3-(((S)-1-(1H-tetrazol-1-yl)propan-2-yl)oxy)-4-chlorophenyl)-N-(1-((1R,3s,5S)-8-azabicyclo[3.2.1]octan-3-yl)-3-(trifluoromethyl)-1H-pyrazol-4-yl)pyrimidin-2-amine]	< 10 nM
C[C@@H](Cn1cnnn1)Oc1cc(-c2cnc(Nc3cn([C@@H]4C[C@H]5CC[C@@H](C4)N5C4CCOCC4)nc3C(F)(F)F)nc2)ccc1Cl [Example 703, 5-(3-(((S)-1-(1H-tetrazol-1-yl)propan-2-yl)oxy)-4-chlorophenyl)-N-(1-((1R,3s,5S)-8-(tetrahydro-2H-pyran-4-yl)-8-azabicyclo[3.2.1]octan-3-yl)-3-(trifluoromethyl)-1H-pyrazol-4-yl)pyrimidin-2-amine]	< 10 nM
C[C@@H](Cn1cnnn1)Oc1cc(-c2cnc(Nc3cc(N4CCN(C5CCOCC5)CC4)ncc3OC(F)(F)F)nc2)ccc1Cl [Example 705, (S)-5-(3-((1-(1H-tetrazol-1-yl)propan-2-yl)oxy)-4-chlorophenyl)-N-(2-(4-(tetrahydro-2H-pyran-4-yl)piperazin-1-yl)-5-(trifluoromethoxy)pyridin-4-yl)pyrimidin-2-amine]	< 10 nM
C[C@@H](Cn1cnnn1)Oc1cc(-c2cnc(Nc3cn(C4CCN(C5CCOCC5)CC4)nc3C(F)(F)F)nc2)ccc1Cl [Example 706, (S)-5-(3-((1-(1H-tetrazol-1-yl)propan-2-yl)oxy)-4-chlorophenyl)-N-(1-(1-(tetrahydro-2H-pyran-4-yl)piperidin-4-yl)-3-(trifluoromethyl)-1H-pyrazol-4-yl)pyrimidin-2-amine]	< 10 nM
C[C@@H](Cn1cnnn1)Oc1cc(-c2cnc(Nc3cn(Cc4ccccn4)nc3C(F)(F)F)nc2)ccc1Cl [Example 707, (S)-5-(3-((1-(1H-tetrazol-1-yl)propan-2-yl)oxy)-4-chlorophenyl)-N-(1-(pyridin-2-ylmethyl)-3-(trifluoromethyl)-1H-pyrazol-4-yl)pyrimidin-2-amine]	10 to 100 nM
C[C@@H](Cn1cnnn1)Oc1cc(-c2cnc(Nc3cn(Cc4cccnc4)nc3C(F)(F)F)nc2)ccc1Cl [Example 708, (S)-5-(3-((1-(1H-tetrazol-1-yl)propan-2-yl)oxy)-4-chlorophenyl)-N-(1-(pyridin-3-ylmethyl)-3-(trifluoromethyl)-1H-pyrazol-4-yl)pyrimidin-2-amine]	10 to 100 nM
C[C@@H](Cn1cnnn1)Oc1cc(-c2cnc(Nc3cn(Cc4ccncc4)nc3C(F)(F)F)nc2)ccc1Cl [Example 709, (S)-5-(3-((1-(1H-tetrazol-1-yl)propan-2-yl)oxy)-4-chlorophenyl)-N-(1-(pyridin-4-ylmethyl)-3-(trifluoromethyl)-1H-pyrazol-4-yl)pyrimidin-2-amine]	10 to 100 nM
C[C@@H](Cn1cnnn1)Oc1cc(-c2cnc(Nc3cn(CC4CCCO4)nc3C(F)(F)F)nc2)ccc1Cl (stereo partly drawn) [Example 710, 5-(3-(((S)-1-(1H-tetrazol-1-yl)propan-2-yl)oxy)-4-chlorophenyl)-N-(1-((tetrahydrofuran-2-yl)methyl)-3-(trifluoromethyl)-1H-pyrazol-4-yl)pyrimidin-2-amine]	10 to 100 nM
C[C@@H](Cn1cnnn1)Oc1cc(-c2cnc(Nc3cc(C(F)(F)F)n(C)n3)nc2)ccc1Cl [Example 711, (S)-5-(3-((1-(1H-tetrazol-1-yl)propan-2-yl)oxy)-4-chlorophenyl)-N-(1-methyl-5-(trifluoromethyl)-1H-pyrazol-3-yl)pyrimidin-2-amine]	≥ 100 nM
C[C@@H](Cn1cnnn1)Oc1cc(-c2cnc(Nc3cn(CC4CCCCO4)nc3C(F)(F)F)nc2)ccc1Cl (stereo partly drawn) [Example 712, 5-(3-(((S)-1-(1H-tetrazol-1-yl)propan-2-yl)oxy)-4-chlorophenyl)-N-(1-((tetrahydro-2H-pyran-2-yl)methyl)-3-(trifluoromethyl)-1H-pyrazol-4-yl)pyrimidin-2-amine]	10 to 100 nM
CC(C(N)=O)n1cc(Nc2ncc(-c3ccc(Cl)c(O[C@@H](C)Cn4cnnn4)c3)cn2)c(C(F)(F)F)n1 (stereo partly drawn) [Example 713, 2-(4-((5-(3-(((S)-1-(1H-tetrazol-1-yl)propan-2-yl)oxy)-4-chlorophenyl)pyrimidin-2-yl)amino)-3-(trifluoromethyl)-1H-pyrazol-1-yl)propanamide]	< 10 nM
C[C@@H](Cn1cnnn1)Oc1cc(-c2cnc(Nc3ccn(Cc4ccccc4)n3)nc2)ccc1Cl [Example 714, (S)-5-(3-((1-(1H-tetrazol-1-yl)propan-2-yl)oxy)-4-chlorophenyl)-N-(1-benzyl-1H-pyrazol-3-yl)pyrimidin-2-amine]	10 to 100 nM
C[C@@H](Cn1cnnn1)Oc1cc(-c2cnc(Nc3ccn(C(C)(C)C)n3)nc2)ccc1Cl [Example 715, (S)-5-(3-((1-(1H-tetrazol-1-yl)propan-2-yl)oxy)-4-chlorophenyl)-N-(1-(tert-butyl)-1H-pyrazol-3-yl)pyrimidin-2-amine]	≥ 100 nM
CC(C#N)n1cc(Nc2ncc(-c3ccc(Cl)c(O[C@@H](C)Cn4cnnn4)c3)cn2)c(C(F)(F)F)n1 (stereo partly drawn) [Example 716, 2-(4-((5-(3-(((S)-1-(1H-tetrazol-1-yl)propan-2-yl)oxy)-4-chlorophenyl)pyrimidin-2-yl)amino)-3-(trifluoromethyl)-1H-pyrazol-1-yl)propanenitrile]	10 to 100 nM
C[C@@H](Cn1cnnn1)Oc1cc(-c2cnc(Nc3cn(C4C[C@@H]5CC[C@H]4C5)nc3C(F)(F)F)nc2)ccc1Cl (stereo partly drawn) [Example 717, 5-(3-(((S)-1-(1H-tetrazol-1-yl)propan-2-yl)oxy)-4-chlorophenyl)-N-(1-((1S,4R)-bicyclo[2.2.1]heptan-2-yl)-3-(trifluoromethyl)-1H-pyrazol-4-yl)pyrimidin-2-amine]	≥ 100 nM
C[C@@H](Cn1cnnn1)Oc1cc(-c2cnc(Nc3cn(CCCO)nc3C(F)(F)F)nc2)ccc1Cl [Example 718, (S)-3-(4-((5-(3-((1-(1H-tetrazol-1-yl)propan-2-yl)oxy)-4-chlorophenyl)pyrimidin-2-yl)amino)-3-(trifluoromethyl)-1H-pyrazol-1-yl)propan-1-ol]	10 to 100 nM
C[C@@H](Cn1cnnn1)Oc1cc(-c2cnc(Nc3cc(-c4ccccc4)nn3C)nc2)ccc1Cl [Example 719, (S)-5-(3-((1-(1H-tetrazol-1-yl)propan-2-yl)oxy)-4-chlorophenyl)-N-(1-methyl-3-phenyl-1H-pyrazol-5-yl)pyrimidin-2-amine]	10 to 100 nM
C[C@@H](Cn1cnnn1)Oc1cc(-c2cnc(Nc3cc(C(F)(F)F)nn3C)nc2)ccc1Cl [Example 720, (S)-5-(3-((1-(1H-tetrazol-1-yl)propan-2-yl)oxy)-4-chlorophenyl)-N-(1-methyl-3-(trifluoromethyl)-1H-pyrazol-5-yl)pyrimidin-2-amine]	10 to 100 nM
